Data published in the supplement of paper PMC10307832.

Columns and labels:
Experiment in all cases: relative viability (nuclei count vs DMSO), 5 days (fraction); higher = more cells survive
Tivantinib + Olaparib = compound: O=C1NC(=O)[C@@H](c2cn3c4c(cccc24)CCC3)[C@@H]1c1c[nH]c2ccccc12 [Tivantinib] + O=C(c1cc(Cc2n[nH]c(=O)c3ccccc23)ccc1F)N1CCN(C(=O)C2CC2)CC1 [Olaparib] (partner 8 µM)
How it was run: (§1)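 After 5 days of treatment, lung cancer cells in 1536-well plates were fixed and stained in a single step (final 0.05% Triton X-100, 1% formaldehyde, 1 ug/ml Hoechst) and their nuclei counted on 4× images. Treatment had been applied by pin tool the day after seeding as one drug alone or as a fixed anchor-drug dose with five library-drug doses (not always all listed) in √10 steps. Relative viability is the nuclei count of treated wells divided by that of vehicle wells, and values are medians of duplicate plates.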

Crenolanib + Lapatinib = compound: CC1(COc2ccc3c(c2)ncn3-c2ccc3cccc(N4CCC(N)CC4)c3n2)COC1 [Crenolanib] + CS(=O)(=O)CCNCc1ccc(-c2ccc3ncnc(Nc4ccc(OCc5cccc(F)c5)c(Cl)c4)c3c2)o1 [Lapatinib] (partner 2 µM)
How it was run: as §1

Tivantinib + Crizotinib = compound: O=C1NC(=O)[C@@H](c2cn3c4c(cccc24)CCC3)[C@@H]1c1c[nH]c2ccccc12 [Tivantinib] + C[C@@H](Oc1cc(-c2cnn(C3CCNCC3)c2)cnc1N)c1c(Cl)ccc(F)c1Cl [Crizotinib] (partner 1 µM)
How it was run: as §1

Crenolanib + Dasatinib = compound: CC1(COc2ccc3c(c2)ncn3-c2ccc3cccc(N4CCC(N)CC4)c3n2)COC1 [Crenolanib] + Cc1nc(Nc2ncc(C(=O)Nc3c(C)cccc3Cl)s2)cc(N2CCN(CCO)CC2)n1 [Dasatinib] (partner 0.075 µM)
How it was run: as §1

Row | Cell Line | relative viability (Tivantinib + Olaparib; first compound 0.01 µM) | relative viability (Tivantinib + Olaparib; first compound 0.03162 µM) | relative viability (Tivantinib + Olaparib; first compound 0.1 µM) | relative viability (Tivantinib + Olaparib; first compound 0.3162 µM) | relative viability (Crenolanib + Lapatinib; first compound 0.01 µM) | relative viability (Crenolanib + Lapatinib; first compound 0.03162 µM) | relative viability (Crenolanib + Lapatinib; first compound 0.1 µM) | relative viability (Crenolanib + Lapatinib; first compound 0.3162 µM) | relative viability (Crenolanib + Lapatinib; first compound 1 µM) | relative viability (Tivantinib + Crizotinib; first compound 0.01 µM) | relative viability (Tivantinib + Crizotinib; first compound 0.03162 µM) | relative viability (Tivantinib + Crizotinib; first compound 0.1 µM) | relative viability (Tivantinib + Crizotinib; first compound 0.3162 µM) | relative viability (Crenolanib + Dasatinib; first compound 0.01 µM) | relative viability (Crenolanib + Dasatinib; first compound 0.03162 µM) | relative viability (Crenolanib + Dasatinib; first compound 0.1 µM) | relative viability (Crenolanib + Dasatinib; first compound 0.3162 µM) | relative viability (Crenolanib + Dasatinib; first compound 1 µM)
1 | NCI-H1915 | 0.262 | 0.227 | 0.244 | 0.239 | 0.943 | 0.927 | 1.01 | 0.956 | 0.764 | 0.868 | 0.888 | 0.852 | 0.91 | 0.306 | 0.271 | 0.304 | 0.294 | 0.223
2 | NCI-H1944 | 0.368 | 0.424 | 0.39 | 0.374 | 0.814 | 0.809 | 0.839 | 0.617 | 0.698 | 1.01 | 1.01 | 1.03 | 0.64 | 0.255 | 0.234 | 0.213 | 0.211 | 0.168
3 | NCI-H1975 | 0.799 | 0.77 | 0.72 | 0.734 | 0.844 | 0.968 | 0.774 | 0.891 | 0.702 | 0.938 | 0.929 | 0.924 | 1.05 | 0.412 | 0.348 | 0.352 | 0.395 | 0.408
4 | NCI-H1993 | 1.22 | 1.04 | 1.05 | 0.589 | 0.805 | 0.759 | 0.856 | 0.787 | 0.784 | 0.931 | 0.929 | 0.899 | 0.765 | 0.621 | 0.63 | 0.588 | 0.623 | 0.429
5 | NCI-H2009 | 0.714 | 0.674 | 0.746 | 0.643 | 1.07 | 0.889 | 0.899 | 0.913 | 0.906 | 1.05 | 1.07 | 1.06 | 0.98 | 0.323 | 0.297 | 0.257 | 0.294 | 0.227
6 | NCI-H2023 | 0.52 | 0.452 | 0.479 | 0.402 | 1.04 | 0.898 | 0.844 | 0.889 | 0.47 | 0.602 | 0.762 | 0.673 | 0.639 | 0.656 | 0.603 | 0.669 | 0.743 | 0.567
7 | NCI-H2085 | 0.825 | 0.817 | 0.718 | 0.778 | 0.65 | 0.81 | 0.731 | 0.745 | 0.799 | 0.909 | 0.76 | 0.75 | 0.756 | 0.27 | 0.26 | 0.263 | 0.216 | 0.315
8 | NCI-H2087 | 0.56 | 0.628 | 0.602 | 0.658 | 1.14 | 1 | 0.985 | 1.18 | 1.09 | 0.987 | 0.913 | 0.856 | 1.01 | 0.809 | 1.03 | 0.694 | 1.07 | 0.818
9 | NCI-H2126 | 0.94 | 0.933 | 0.881 | 0.813 | 0.796 | 0.742 | 0.745 | 0.775 | 0.71 | 1.02 | 1.01 | 0.983 | 1.03 | 0.595 | 0.635 | 0.604 | 0.74 | 0.616
10 | NCI-H2170 | 0.558 | 0.658 | 0.507 |  | 0.272 | 0.283 | 0.281 | 0.276 | 0.247 | 1.31 | 1.13 | 1.04 |  | 0.697 | 0.569 | 0.591 | 0.598 | 0.641
11 | NCI-H2228 | 0.43 | 0.815 | 0.678 | 0.587 | 0.964 | 0.876 | 0.969 | 1.27 | 1.28 | 0.449 | 0.481 | 0.427 | 0.337 | 0.488 | 0.555 | 0.519 | 0.46 | 0.518
12 | NCI-H2347 | 0.556 | 0.593 | 0.583 | 0.552 | 0.981 | 0.903 | 0.663 | 1.05 | 0.873 | 0.756 | 0.564 | 0.74 | 0.674 | 0.31 |  |  | 0.278 | 0.295
13 | NCI-H2405 | 1.02 | 0.895 | 0.868 | 0.867 | 1.02 | 1.13 | 0.85 | 0.998 | 0.948 | 0.892 | 0.879 | 0.821 | 0.821 | 0.225 | 0.214 |  | 0.181 | 0.196
14 | NCI-H3122 | 0.643 | 0.608 | 0.584 | 0.665 | 1.02 | 0.976 | 1.01 | 1.09 | 1.21 | 0.271 | 0.275 | 0.252 | 0.272 | 0.862 | 0.73 | 0.782 | 0.963 | 0.972
15 | PC-3 [JPC-3] | 1.09 | 1.12 | 1.11 | 0.662 | 0.452 | 0.45 | 0.511 | 0.449 | 0.452 | 1.03 | 1.05 | 0.996 | 0.759 | 0.989 | 0.974 | 0.974 | 1.12 | 1.06
16 | PC-14 | 0.238 | 0.305 | 0.228 | 0.26 | 0.311 | 0.294 | 0.335 | 0.335 | 0.324 | 0.912 | 0.883 | 0.934 | 0.894 | 0.289 | 0.262 | 0.259 | 0.263 | 0.266
17 | RERF-LC-KJ | 0.894 | 0.892 | 0.917 | 0.799 | 0.917 | 0.886 | 0.903 | 0.872 | 0.812 | 0.831 | 0.886 | 0.852 | 0.831 | 0.81 | 0.961 | 0.933 | 0.956 | 0.733
18 | SK-LU-1 | 0.595 | 0.464 | 0.433 | 0.512 | 0.911 | 0.917 | 0.694 | 0.921 | 0.958 | 0.95 | 1.01 | 0.872 | 0.716 | 0.198 | 0.182 | 0.159 | 0.194 | 0.172
